Laboratory results reported in patent US20250129430A1, “HIGH ATP-AFFINITY PROTEIN AS THERAPEUTIC TARGET FOR INTRACTABLE CANCER MOLECULAR SUBTYPES AND INHIBITOR THEREOF” (VeraVerse Co., Ltd., priority 2021, published 2025).

Legend:
Format in all cases: cell-based, human
[1] = tested on: AGS; assay: Cell viability drug screen, 12-point dose-response AUC; conditions: 72 hours; for area under the viability curve (AUC), normalized: AGS cells, 12-point dose-response
Summary of the method: (§1)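 Gastric cancer lines seeded 5×10^3 cells/well, dosed after 24 h with half-log 12-point compound dilutions (DMSO 0.5% control), then 72 h at 37 °C. Viability by luminescence, normalized to DMSO; AUC by trapezoidal method, averaged over repeats.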

[2] = tested on: Hs746T; assay: as above; conditions: 72 hours; for area under the viability curve (AUC), normalized: Hs746T cells, 12-point dose-response
Summary of the method: (§2)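 Each cell line receives a twelve-point half-log titration of drug beginning 24 h after plating 5×10^3 cells per well. Following 72 h culture at 37 °C, luminescent signal is recorded and expressed versus vehicle. AUC is derived by the trapezoidal method.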

[3] = tested on: KATO3; assay: as above; conditions: KATO3 cells, 72 hours; for area under the viability curve (AUC), normalized: 12-point dose-response
Summary of the method: as §2

[4] = tested on: MKN1; assay: as above; conditions: MKN1 cells, 72 hours; for area under the viability curve (AUC), normalized: 12-point dose-response
Summary of the method: as §2

[5] = tested on: MKN28; assay: as above; conditions: MKN28 cells, 72 hours; for area under the viability curve (AUC), normalized: 12-point dose-response
Summary of the method: as §2

[6] = tested on: MKN45; assay: as above; conditions: 72 hours; for area under the viability curve (AUC), normalized: MKN45 cells, 12-point dose-response
Summary of the method: as §1

[7] = tested on: MKN74; assay: as above; conditions: MKN74 cells, 72 hours; for area under the viability curve (AUC), normalized: 12-point dose-response
Summary of the method: as §1

[8] = tested on: NCC19; assay: as above; conditions: NCC19 cells, 72 hours; for area under the viability curve (AUC), normalized: 12-point dose-response
Summary of the method: as §2

[9] = tested on: NCC20; assay: as above; conditions: NCC20 cells, 72 hours; for area under the viability curve (AUC), normalized: 12-point dose-response
Summary of the method: as §2

[10] = tested on: NCC24; assay: as above; conditions: NCC24 cells, 72 hours; for area under the viability curve (AUC), normalized: 12-point dose-response
Summary of the method: as §2

[11] = tested on: NCC59; assay: as above; conditions: NCC59 cells, 72 hours; for area under the viability curve (AUC), normalized: 12-point dose-response
Summary of the method: as §2

[12] = tested on: NCI_N87; assay: as above; conditions: NCI_N87 cells, 72 hours; for area under the viability curve (AUC), normalized: 12-point dose-response
Summary of the method: as §2

[13] = tested on: OCUM1; assay: as above; conditions: OCUM1 cells, 72 hours; for area under the viability curve (AUC), normalized: 12-point dose-response
Summary of the method: as §2

[14] = tested on: SK4; assay: as above; conditions: 72 hours; for area under the viability curve (AUC), normalized: SK4 cells, 12-point dose-response
Summary of the method: as §2

[15] = tested on: SNU16; assay: as above; conditions: SNU16 cells, 72 hours; for area under the viability curve (AUC), normalized: 12-point dose-response
Summary of the method: as §2

[16] = tested on: SNU1750; assay: as above; conditions: 72 hours; for area under the viability curve (AUC), normalized: SNU1750 cells, 12-point dose-response
Summary of the method: as §2

[17] = tested on: SNU1967; assay: as above; conditions: SNU1967 cells, 72 hours; for area under the viability curve (AUC), normalized: 12-point dose-response
Summary of the method: as §2

[18] = tested on: SNU1; assay: as above; conditions: SNU1 cells, 72 hours; for area under the viability curve (AUC), normalized: 12-point dose-response
Summary of the method: as §2

[19] = tested on: SNU216; assay: as above; conditions: 72 hours; for area under the viability curve (AUC), normalized: SNU216 cells, 12-point dose-response
Summary of the method: as §1

[20] = tested on: SNU484; assay: as above; conditions: 72 hours; for area under the viability curve (AUC), normalized: SNU484 cells, 12-point dose-response
Summary of the method: as §2

[21] = tested on: SNU601; assay: as above; conditions: SNU601 cells, 72 hours; for area under the viability curve (AUC), normalized: 12-point dose-response
Summary of the method: as §2

[22] = tested on: SNU620; assay: as above; conditions: SNU620 cells, 72 hours; for area under the viability curve (AUC), normalized: 12-point dose-response
Summary of the method: as §2

[23] = tested on: SNU638; assay: as above; conditions: SNU638 cells, 72 hours; for area under the viability curve (AUC), normalized: 12-point dose-response
Summary of the method: as §2

[24] = tested on: SNU668; assay: as above; conditions: 72 hours; for area under the viability curve (AUC), normalized: SNU668 cells, 12-point dose-response
Summary of the method: as §2

[25] = tested on: SNU719; assay: as above; conditions: SNU719 cells, 72 hours; for area under the viability curve (AUC), normalized: 12-point dose-response
Summary of the method: as §1

[26] = tested on: YCC11; assay: as above; conditions: 72 hours; for area under the viability curve (AUC), normalized: YCC11 cells, 12-point dose-response
Summary of the method: as §2

[27] = tested on: YCC2; assay: as above; conditions: YCC2 cells, 72 hours; for area under the viability curve (AUC), normalized: 12-point dose-response
Summary of the method: as §2

[28] = tested on: YCC3; assay: as above; conditions: YCC3 cells, 72 hours; for area under the viability curve (AUC), normalized: 12-point dose-response
Summary of the method: as §2

[29] = tested on: FU97; assay: as above; design: Average Area Under the Viability Curve (AUC), AUC norm value: scale not given here; conditions: FU97 cells, 72 hours; for area under the viability curve (AUC), normalized: 12-point dose-response
Summary of the method: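 Trapezoidal AUC of a 12-point, DMSO-normalized dose-response curve. Luminescent viability was measured after 72 h of exposure at 37° C to half-log serial dilutions (0.5% DMSO control), dosed 24 h after plating FU97 cells at 5×10^3 per well.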

[30] = tested on: non-SEM-type gastric cancer cell line; assay: Cell viability drug screen, AUC summary over non-SEM-type lines; conditions: in the non-SEM-type gastric cancer cell line

SMILES: CN(C)c1ccc(C(=C2C=CC(=[N+](C)C)C=C2)c2ccc(N(C)C)cc2)cc1 [Crystal Violet, Crystal violet]
- area under the viability curve (AUC), normalized [1]: −0.4769
- area under the viability curve (AUC), normalized [2]: −0.2085
- area under the viability curve (AUC), normalized [3]: 0.911
- area under the viability curve (AUC), normalized [4]: 0.4211
- area under the viability curve (AUC), normalized [5]: 0
- area under the viability curve (AUC), normalized [6]: 1.101
- area under the viability curve (AUC), normalized [7]: −0.5721
- area under the viability curve (AUC), normalized [8]: 0.4873
- area under the viability curve (AUC), normalized [9]: −1.031
- area under the viability curve (AUC), normalized [10]: 0.2743
- area under the viability curve (AUC), normalized [11]: 0.5098
- area under the viability curve (AUC), normalized [12]: 0.4907
- area under the viability curve (AUC), normalized [13]: 0.7741
- area under the viability curve (AUC), normalized [14]: −1.015
- area under the viability curve (AUC), normalized [15]: −0.5668
- area under the viability curve (AUC), normalized [16]: −0.5514
- area under the viability curve (AUC), normalized [17]: 0.3458
- area under the viability curve (AUC), normalized [18]: −0.5355
- area under the viability curve (AUC), normalized [19]: −0.02818
- area under the viability curve (AUC), normalized [20]: −0.7108
- area under the viability curve (AUC), normalized [21]: 0.9442
- area under the viability curve (AUC), normalized [22]: −0.7672
- area under the viability curve (AUC), normalized [23]: −0.4956
- area under the viability curve (AUC), normalized [24]: 0.1937
- area under the viability curve (AUC), normalized [25]: 3.076
- area under the viability curve (AUC), normalized [26]: −0.8996
- area under the viability curve (AUC), normalized [27]: 0.4289
- area under the viability curve (AUC), normalized [28]: 0.9437
- area under the viability curve (AUC), normalized [29]: −0.985
- AUC value [30]: high

SMILES: Nc1cc(C(F)(F)F)c(-c2cc(N3CCOCC3)nc(N3CCOCC3)n2)cn1 [BKM120]
- area under the viability curve (AUC), normalized [1]: −1.094
- area under the viability curve (AUC), normalized [2]: 0
- area under the viability curve (AUC), normalized [3]: 2.449
- area under the viability curve (AUC), normalized [4]: −0.1827
- area under the viability curve (AUC), normalized [5]: −0.0925
- area under the viability curve (AUC), normalized [6]: 1.074
- area under the viability curve (AUC), normalized [7]: −0.05182
- area under the viability curve (AUC), normalized [8]: 0.6866
- area under the viability curve (AUC), normalized [9]: −0.07502
- area under the viability curve (AUC), normalized [10]: −0.4391
- area under the viability curve (AUC), normalized [11]: 1.23
- area under the viability curve (AUC), normalized [12]: −0.38
- area under the viability curve (AUC), normalized [13]: 0.7561
- area under the viability curve (AUC), normalized [14]: −1.247
- area under the viability curve (AUC), normalized [15]: −0.3076
- area under the viability curve (AUC), normalized [16]: −0.4392
- area under the viability curve (AUC), normalized [17]: 0.676
- area under the viability curve (AUC), normalized [18]: 0.2556
- area under the viability curve (AUC), normalized [19]: 0.1342
- area under the viability curve (AUC), normalized [20]: −0.475
- area under the viability curve (AUC), normalized [21]: 0.9711
- area under the viability curve (AUC), normalized [22]: −0.08823
- area under the viability curve (AUC), normalized [23]: 0.01503
- area under the viability curve (AUC), normalized [24]: 0.2688
- area under the viability curve (AUC), normalized [25]: 3.314
- area under the viability curve (AUC), normalized [26]: −1.147
- area under the viability curve (AUC), normalized [27]: 0.7169
- area under the viability curve (AUC), normalized [28]: 1.085
- area under the viability curve (AUC), normalized [29]: −1.3007
- AUC value [30]: high

SMILES: Cc1ccc([N+](=O)[O-])cc1S(=O)(=O)N(C)/N=C/c1cnc2ccc(Br)cn12 [PIK-75]
- Average Area Under the Viability Curve (AUC), AUC norm value ([1]; AGS cells (non-SEM subtype)): −1.2576
- Average Area Under the Viability Curve (AUC), AUC norm value ([2]; Hs746T cells (SEM subtype)): 0.1171
- Average Area Under the Viability Curve (AUC), AUC norm value [3]: 3.793
- Average Area Under the Viability Curve (AUC), AUC norm value [4]: −0.03458
- Average Area Under the Viability Curve (AUC), AUC norm value [5]: 0.05865
- Average Area Under the Viability Curve (AUC), AUC norm value ([6]; MKN45 cells (non-SEM subtype)): 1.17
- Average Area Under the Viability Curve (AUC), AUC norm value [7]: 0.2052
- Average Area Under the Viability Curve (AUC), AUC norm value [8]: 0.3535
- Average Area Under the Viability Curve (AUC), AUC norm value [9]: −0.4913
- Average Area Under the Viability Curve (AUC), AUC norm value [10]: −0.07825
- Average Area Under the Viability Curve (AUC), AUC norm value [11]: −0.1565
- Average Area Under the Viability Curve (AUC), AUC norm value [12]: −0.1238
- Average Area Under the Viability Curve (AUC), AUC norm value [13]: 0.5105
- Average Area Under the Viability Curve (AUC), AUC norm value ([14]; SK4 cells (SEM subtype)): −1.009
- Average Area Under the Viability Curve (AUC), AUC norm value [15]: −1.485
- Average Area Under the Viability Curve (AUC), AUC norm value ([16]; SNU1750 cells (SEM subtype)): 0
- Average Area Under the Viability Curve (AUC), AUC norm value [17]: −0.3048
- Average Area Under the Viability Curve (AUC), AUC norm value [18]: −0.3397
- Average Area Under the Viability Curve (AUC), AUC norm value ([19]; SNU216 cells (non-SEM subtype)): 0.8132
- Average Area Under the Viability Curve (AUC), AUC norm value ([20]; SNU484 cells (SEM subtype)): −0.9469
- Average Area Under the Viability Curve (AUC), AUC norm value [21]: 1.999
- Average Area Under the Viability Curve (AUC), AUC norm value [22]: 0.7882
- Average Area Under the Viability Curve (AUC), AUC norm value [23]: 1.312
- Average Area Under the Viability Curve (AUC), AUC norm value ([24]; SNU668 cells (SEM subtype)): −0.428
- Average Area Under the Viability Curve (AUC), AUC norm value [25]: 5.726
- Average Area Under the Viability Curve (AUC), AUC norm value ([26]; YCC11 cells (SEM subtype)): −0.5398
- Average Area Under the Viability Curve (AUC), AUC norm value [27]: 1.289
- Average Area Under the Viability Curve (AUC), AUC norm value [28]: 1.723
- Average Area Under the Viability Curve (AUC), AUC norm value [29]: −0.5267
- AUC value [30]: high
